Reference: US5916906A, “Compositions comprising nicotinylalanine and an inhibitor of glycine conjugation or vitamin B6” (priority 1997, dated 1999)

Columns and labels:
Assay type in all cases: in vivo, C57BL/6 mice
[1] = tested on: LP-BM5 Retrovirus; experiment: Ecotropic virus XC plaque assay on spleen cells of treated LP-BM5 infected mice; settings: for Virus titer, plaques per million spleen cells: four months after inoculation, mean ± standard deviation, NAL 400 mg/kg
Source text: FIG. 4A and 4B: Mean Number of Virus Particles as Determined from Plaques per Million Spleen Cells from Serially Sacrificed Mice at Monthly Intervals After Inoculation with LP-BM5 Retrovirus. […] Each ml of the virus pool contained 3.66 log PFU ecotropic virus as determined by XC Plaque Assay. Treatment in all groups began one day after virus inoculation, except for the NAL 400 Delay Group which began treatment two weeks after virus inoculation. Groups and treatments are as follows:
FIG. 4B: LP-BM5+PBS=as described above; NAL 400=virus positive, plus daily (M-F) i.p. injections of nicotinylalanine (400 mg/kg) only; NAL 400 delay=nicotinylalanine (400 mg/kg) only, injected i.p. daily (M-F) beginning two weeks after virus inoculation.
Ecotropic virus titers were determined using the XC plaque assay (Yetter R. A. et al., J. Exp. Med., 168, 623-635, 1988) and were performed on spleen cells cultured from all serially killed mice at the interim sacrifices as shown in Tables 2-A & 2-B). Spleens were weighed and cells were extruded with sterile media (RPMI 1640, with gentamycin and 10% fetal calf serum). Serial 10-fold dilutions were made and one ml of each dilution was overlayered onto a monolayer of SC-1 cells treated with 4 μg/ml polybrene. After 24 hours, the media was removed and washed and the SC-1 cells were fed with fresh media. When the monolayer was confluent, the plates were irradiated with UV light at 60 ergs/mm^2 /sec and overlayered with XC cells. When the XC cell layer was confluent, the plates were fixed with methanol and stained with Giemsa Stain. Plaques were counted on an Artek colony counter and confirmed by phase contrast microscopy. Values presented in FIG. 4A represent the mean of adjusted samples at three dilutions expressed as plaques per million spleen cells. Mean and standard deviations corresponding to each of the data points in FIGS. 4A and 4B are derived from three mice serially killed at interim sacrifice times.

[2] = tested on: LP-BM5 MuLV Retrovirus; experiment: MAIDS model: disease stage score, attainment of disease score 4 (Kaplan-Meier) and survival up to 28 weeks
Source text: Each value represents the mean and one standard standard deviation for groups of surviving mice (at least 4 mice per group) at termination of the study, following 28 weeks post-inoculation by LP-BM5 virus.
(§1) Each group consisted of 8 mice, except for the virus-negative control group which consisted of 6 mice.
as §1
This study was designed to determine whether nicotinylalanine (NAL) alone or in combination with acetylsalicylic acid (ASA) will prevent or alter the course of murine retroviral-induced immunodeficiency disease, MAIDS, in C57BL/6 female mice. The LP-BM5 MuLV virus used for these studies was prepared from chronically infected SC-1 cells (ATCC Cat. No. CRL-1404), as described by Yetter R. A. et al., J. Exp. Med., 168, 623-635, 1988. […] The MAIDS model is well characterized and reproducible in the laboratory, as described by Mosier D. E. et al., J. Exp. Med. 161, 766-784, 1985.
Measures of disease progression followed the methods developed by Eiseman et al., 1991 (Ibid). Disease scores 0 through +4 are based upon body weight gain and palpable alterations in the size of lymph nodes and spleen. Severity of disease is scored as follows: 0.5, increased body weight and variably detected increase in size of any one lymph node or spleen; +1, clearly detectable increase in the size of a lymph node and spleen; +2, readily detectable (greater than 0.3 cm in diameter) increased size in more than one lymph node and, in particular, enlargement of subcervical, brachial or axillary nodes; +3, increased size of all palpable nodes and palpable splenomegaly (≥0.3 grams); +4, advanced disease with extensive splenomegaly (>1.0 grams) and lymphadenopathy.
Specific pathogen free, female C57BL/6 mice (5 weeks of age) were purchased from Charles River Breeding Laboratories. All mice were allowed one week to acclimate to housing facilities prior to randomization for study. Animals were marked for identification and placed in microisolator cages with identifying cards (5 mice/cage), where autoclaved food and water were provided ad libitum.
NAL and ASA were formulated under sterile conditions according to preformulation methods outlined in Remington's Pharmaceutical Sciences Handbook, 18th Edition, 1990, ibid). NAL and ASA were dissolved in sterile phosphate-buffered normal saline solution (i.e., vehicle; Biofluids Inc., Lot 413054), adjusted to between pH 7.2 to 7.4 with […], sterilized by filtration through 0.2 μm bottle-type filters, and dispersed into sterile glass vials, sealed and capped (Wheaton Inc.).
Except for Group 6 (which began treatment 2 weeks after virus inoculation),test drug injections began 1 day after virus infection and continued every day except weekends (i.e., 5 times per week).

[3] = Plasma nicotinamide levels in LP-BM5 infected mice (HPLC); settings: NAL 400 mg/kg; for Mean Plasma Nicotinamide Level: virus-positive, mean ± SD
Procedure: Mice were sacrificed on Tuesdays at monthly intervals after
inoculation, approximately 24 hours after their last treatment.
At time of sacrifice, blood was collected by cardiac puncture and stored
Results are expressed as mean concentrations ± standard deviation in

[4] = Hematocrit of LP-BM5 infected mice (hematopoietic toxicity); settings: for Mean Hematocrit: virus-positive, NAL 400 mg/kg, ASA 20 mg/kg, AZT printed 1 mg/kg
Procedure: Disease progression was monitored by measuring serum IgM levels by ELISA on all animals at monthly intervals during the course of disease. Three mice per group were randomly selected and sacrificed at monthly intervals (end of month one through four) of the study. Disease scores for each animal were recorded weekly based upon palpation of lymph nodes and spleen. Complete gross necropsies were performed on these euthanized animals and the ratio of recorded spleen to body weights was an additional indicator of diseases progression. […] Infection was quantified by ecotropic virus XC plaque assays of spleens removed from the interim sacrificed animals. The study was to be terminated when mice were either dead or disease scores were +4 in more than 50% of the vehicle-treated MAIDS controls (Group 1), which occurred at 19 weeks post-inoculation of the virus pool. However, as the remaining mice in Group 1 were slow to progress towards more severe disease (FIG. 5) or death (FIG. 6), the study was extended until a termination date of 28 weeks post-inoculation.
Mice were maintained through the fifth month post virus inoculation until

[5] = NAL 400 mg/kg delayed by two weeks, FIG. 5
[6] = Month 1, ASA 20 mg/kg, AZT as in Table 4
[7] = Month 1, ~24 h after last treatment, ASA 20 mg/kg, AZT printed 1 mg/kg
[8] = Month 2, ASA 20 mg/kg, AZT as in Table 4
[9] = Month 2, ~24 h after last treatment, ASA 20 mg/kg, AZT printed 1 mg/kg
[10] = Month 3, ASA 20 mg/kg, AZT as in Table 4
[11] = Month 3, ~24 h after last treatment, ASA 20 mg/kg, AZT printed 1 mg/kg
[12] = Month 4, ~24 h after last treatment, ASA 20 mg/kg, AZT printed 1 mg/kg

Q: Which “Virus titer, plaques per million spleen cells” value ([1]; ASA 20 mg/kg, AZT 1 mg/mL) does the source give for `NC(CC(=O)c1cccnc1)C(=O)O` (racemic) [NAL, γ-(3-pyridyl)-γ-oxo-α-aminobutyrate] here?
A: 3,410±4,606 plaques per million spleen cells

Q: And the “Virus titer, plaques per million spleen cells” value ([1]; delayed two weeks)?
A: 796±463 plaques per million spleen cells

Q: What about the “Survival vs LP-BM5 virus-positive control (log-rank p)” value ([2]; NAL 400 mg/kg after two week delay, FIG. 6) of the same compound?
A: 0.2492

Q: What about the “Retardation of disease progression (score +4), Log-Rank p” value [2, 5] of the same compound?
A: 0.0469

Q: What about the “Retardation of disease progression (score +4), Wilcoxon p” value [2, 5] of the same compound?
A: 0.0258

Q: What about the “Survival vs vehicle-injected control (Wilcoxon p)” value ([2]; NAL 400 mg/kg delayed by two weeks, FIG. 6) of the same compound?
A: 0.1756

Q: What about the “Survival vs LP-BM5 virus-positive control (log-rank p)” value ([2]; treatment from day 1, FIG. 6) of the same compound?
A: 0.9621

Q: And the “Ratio of plasma nicotinamide mean to placebo (PBS Control, Group 1)” value (shortened to “Ratio of plasma nicotinamide mean”) [3, 6]?
A: 1.06

Q: And the “Ratio of plasma nicotinamide mean” value ([3]; Month 1, delayed 2 weeks)?
A: 1.16

Q: What about the “Mean Plasma Nicotinamide Level” value [3, 7] of the same compound?
A: 3.4 ± 0.9 nmol/mL

Q: What about the “Mean Plasma Nicotinamide Level” value ([3]; Month 1, delayed Rx 2 weeks) of the same compound?
A: 3.7 ± 1.1 nmol/mL

Q: And the “Ratio of plasma nicotinamide mean” value [3, 8]?
A: 1.13

Q: What about the “Ratio of plasma nicotinamide mean” value ([3]; Month 2, delayed 2 weeks) of the same compound?
A: 1.49

Q: What about the “Mean Plasma Nicotinamide Level” value [3, 9] of the same compound?
A: 4.4 ± 0.5 nmol/mL

Q: What about the “Mean Plasma Nicotinamide Level” value ([3]; Month 2, delayed Rx 2 weeks) of the same compound?
A: 5.8 ± 0.5 nmol/mL

Q: And the “Ratio of plasma nicotinamide mean” value [3, 10]?
A: 1.35

Q: And the “Ratio of plasma nicotinamide mean” value ([3]; Month 3, delayed 2 weeks)?
A: 1.65

Q: What about the “Mean Plasma Nicotinamide Level” value [3, 11] of the same compound?
A: 3.1 ± 0.4 nmol/mL

Q: And the “Mean Plasma Nicotinamide Level” value ([3]; Month 3, delayed Rx 2 weeks)?
A: 3.8 ± 0.1 nmol/mL

Q: And the “Ratio of plasma nicotinamide mean” value ([3]; Month 4, ASA 20 mg/kg, AZT as in Table 4)?
A: 1.88

Q: And the “Ratio of plasma nicotinamide mean” value ([3]; Month 4, delayed 2 weeks)?
A: 1.84

Q: What about the “Mean Plasma Nicotinamide Level” value [3, 12] of the same compound?
A: 4.7 ± 0.5 nmol/mL

Q: What about the “Mean Plasma Nicotinamide Level” value ([3]; Month 4, delayed Rx 2 weeks) of the same compound?
A: 4.6 ± 0.3 nmol/mL

Q: What about the “Effect on decreased hematocrit (in words)” value ([4]; mouse, in vivo) of the same compound?
A: protective effect

Q: For `Cc1cn([C@H]2C[C@H](N=[N+]=[N-])[C@@H](CO)O2)c(=O)[nH]c1=O` [AZT, 3'azido-3'deoxythymidine, reference compound], which “Virus titer, plaques per million spleen cells” value ([1]; ASA 20 mg/kg, AZT 1 mg/mL) is on record?
A: 333±495 plaques per million spleen cells

Q: What about the “Mice with detectable virus (plaques) in spleens” value ([1]; four months, AZT with or without 400 mg/kg NAL) of the same compound?
A: two of the mice

Q: What about the “Disease score of mice that died prior to termination” value ([2]; Groups 4 and 7) of the same compound?
A: 0.5

Q: And the “Survival vs LP-BM5 virus-positive control (log-rank p)” value ([2]; treatment from day 1, FIG. 6)?
A: 0.0308

Q: What about the “Ratio of plasma nicotinamide mean” value [3, 6] of the same compound?
A: 1.59

Q: What about the “Mean Plasma Nicotinamide Level” value [3, 7] of the same compound?
A: 5.1 ± 0.6 nmol/mL

Q: What about the “Ratio of plasma nicotinamide mean” value [3, 8] of the same compound?
A: 1.54

Q: What about the “Mean Plasma Nicotinamide Level” value [3, 9] of the same compound?
A: 6.0 ± 0.4 nmol/mL

Q: What about the “Ratio of plasma nicotinamide mean” value [3, 10] of the same compound?
A: 2.26

Q: And the “Mean Plasma Nicotinamide Level” value [3, 11]?
A: 5.2 ± 3.0 nmol/mL

Q: What about the “Mean Plasma Nicotinamide Level” value [3, 12] of the same compound?
A: 5.8 ± 0.4 nmol/mL

Q: And the “Mean Hematocrit” value ([4]; Month 1 (10 bled))?
A: 41.7 ± 4.0%

Q: What about the “Mean Hematocrit” value ([4]; Month 2 (10 bled)) of the same compound?
A: 42.7 ± 2.4%

Q: And the “Mean Hematocrit” value ([4]; Month 3 (7 bled))?
A: 41.9 ± 1.7%

Q: And the “Mean Hematocrit” value ([4]; Month 4 (11 bled))?
A: 42.6 ± 3.0%

Q: And the “Mean hematocrit over the four months sampled” value ([4]; NAL plus AZT (Group 5), AZT alone (Group 7))?
A: ~42.6%

Q: And the Hematopoietic toxicity ([4]; one-month interim assessment, AZT in drinking water)?
A: hematopoietic toxicity was already manifest
